The text below walks through data of patent publication US8609362B2, “G-proteins” (Givaudan SA, priority 2002, dated 2013).

What all share (format): cell-based
For assay [1], the target named is T1, human TAS1R2/TAS1R3 (Homo sapiens, UniProt Q7RTX0+Q8TE23).
T1 construct: expressed in transfected cells; host or cells: HEK293T cells stably expressing the G-protein, co-transfected with T1R2 and T1R3 cDNA
T1 sequence (Q8TE23 20-839): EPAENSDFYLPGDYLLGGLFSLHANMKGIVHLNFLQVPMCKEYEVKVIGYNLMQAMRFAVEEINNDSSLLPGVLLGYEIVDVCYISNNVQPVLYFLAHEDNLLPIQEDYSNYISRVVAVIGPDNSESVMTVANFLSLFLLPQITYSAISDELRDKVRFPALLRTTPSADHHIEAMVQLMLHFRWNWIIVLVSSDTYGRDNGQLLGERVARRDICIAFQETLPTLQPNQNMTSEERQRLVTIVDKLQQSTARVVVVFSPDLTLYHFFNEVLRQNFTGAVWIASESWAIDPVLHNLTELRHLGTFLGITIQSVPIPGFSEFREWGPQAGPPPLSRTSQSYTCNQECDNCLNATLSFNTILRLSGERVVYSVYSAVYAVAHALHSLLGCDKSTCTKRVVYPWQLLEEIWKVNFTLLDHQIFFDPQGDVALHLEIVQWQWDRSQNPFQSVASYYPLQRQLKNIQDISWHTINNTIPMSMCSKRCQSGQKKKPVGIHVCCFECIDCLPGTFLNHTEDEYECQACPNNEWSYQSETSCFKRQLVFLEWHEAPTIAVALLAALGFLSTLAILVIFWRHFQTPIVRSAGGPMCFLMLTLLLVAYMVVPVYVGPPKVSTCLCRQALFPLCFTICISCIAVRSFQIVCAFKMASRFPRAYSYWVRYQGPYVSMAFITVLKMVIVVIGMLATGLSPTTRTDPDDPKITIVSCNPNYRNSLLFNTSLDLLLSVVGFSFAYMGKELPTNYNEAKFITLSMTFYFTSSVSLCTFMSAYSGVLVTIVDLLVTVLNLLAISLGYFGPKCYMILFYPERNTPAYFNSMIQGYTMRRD
T1 sequence (Q7RTX0 21-852): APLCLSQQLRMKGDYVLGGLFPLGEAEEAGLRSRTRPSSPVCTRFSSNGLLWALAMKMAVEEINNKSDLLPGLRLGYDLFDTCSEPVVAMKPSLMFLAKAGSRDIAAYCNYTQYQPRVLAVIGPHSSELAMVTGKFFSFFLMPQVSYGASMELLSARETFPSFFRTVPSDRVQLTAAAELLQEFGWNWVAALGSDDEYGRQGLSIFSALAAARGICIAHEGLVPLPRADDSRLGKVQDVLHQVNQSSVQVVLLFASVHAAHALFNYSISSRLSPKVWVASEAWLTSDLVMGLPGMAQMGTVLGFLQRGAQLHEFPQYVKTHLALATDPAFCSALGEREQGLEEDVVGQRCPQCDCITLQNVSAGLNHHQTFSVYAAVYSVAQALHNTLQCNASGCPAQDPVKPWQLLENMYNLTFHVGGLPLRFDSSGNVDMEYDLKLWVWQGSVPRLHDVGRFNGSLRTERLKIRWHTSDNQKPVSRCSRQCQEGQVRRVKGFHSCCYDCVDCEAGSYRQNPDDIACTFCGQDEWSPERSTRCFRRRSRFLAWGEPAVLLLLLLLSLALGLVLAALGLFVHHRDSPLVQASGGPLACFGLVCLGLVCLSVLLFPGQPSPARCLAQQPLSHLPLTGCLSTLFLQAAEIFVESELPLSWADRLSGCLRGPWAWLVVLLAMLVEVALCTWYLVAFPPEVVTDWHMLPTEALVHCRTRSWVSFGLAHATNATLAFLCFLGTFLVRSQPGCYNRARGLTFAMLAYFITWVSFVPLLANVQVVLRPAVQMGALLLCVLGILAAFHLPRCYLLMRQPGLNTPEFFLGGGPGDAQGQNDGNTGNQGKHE
The assay is described as follows: Fluo-4 calcium assay, cells transfected with human sweet receptor TAS1R2/TAS1R3 and expressing a promiscuous G-protein. The note with it: ligand 2.5 mM; for fluorescence signal with Gα16-gustducin 44, times stronger than wild-type Gα16: HEK293T cells. Here is the method: At day 0, cells stably expressing the G-protein are plated in a 6-well plate at a density of 800,000-950,000 cells per well and grown overnight in selective growth media. On day 1, the media is changed to an antibiotic-free growth media and the cells are transfected using 2 μg of T1 R2 and 2 μg of T1 R3 cDNA and 10 μl of Lipofectamine 2000 (Invitrogen). The cells are maintained overnight in antibiotic-free growth media. On day 2, the cells are replated into a black, clear-bottom 96 well plate at 20,000 cells per well and grown overnight. The morning of the calcium assay, the media is replaced with low glucose media supplemented with Glutamax and dialyzed FBS to minimize receptor desensitization by sugars and glutamate. The cells are further incubated in this media for 6 hours at 37 degrees C. At the end of this period, the cells are processed for the calcium assay according to conditions described above.
(§1) Following the methodology as described in Example 5 the following results were obtained: […]

Assay [2] relates to sham transfected (control). In words: Fluo-4 calcium assay, sham transfected control cells of Table 2. How it is done: (§2) At day 0, cells stably expressing the G-protein are plated in black, clear-bottom 96-well plate at 20,000 cells per well and grown overnight in selective growth media. On day 1, the media is changed to an antibiotic-free growth media and the cells are transfected using 300 ng GPCR DNA and 0.6 μl of Lipofectamine 2000 (Invitrogen). The cells are grown overnight and processed the next day using the Fluo-4 calcium assay conditions described in Example 2 above.
as §1

For assay [3], the target named is T2, mouse T2R5 (Mus musculus, UniProt Q9JKT4).
T2 construct: expressed in transfected cells; host or cells: HEK293T cells stably expressing Gα16gustducin44 or Gα16
T2 sequence (Q9JKT4 1-300): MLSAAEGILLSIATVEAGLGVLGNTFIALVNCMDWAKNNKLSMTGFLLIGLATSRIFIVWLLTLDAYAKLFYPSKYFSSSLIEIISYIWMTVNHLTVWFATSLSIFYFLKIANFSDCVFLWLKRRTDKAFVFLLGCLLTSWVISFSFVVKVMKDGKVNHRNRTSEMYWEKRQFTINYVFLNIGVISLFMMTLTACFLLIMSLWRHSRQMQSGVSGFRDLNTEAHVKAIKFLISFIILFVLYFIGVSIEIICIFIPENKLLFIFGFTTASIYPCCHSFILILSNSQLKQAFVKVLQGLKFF
The assay is described as follows: Fluo-4 calcium assay, cells transfected with mouse bitter receptor T2R5 and expressing a promiscuous G-protein. The following applies: for increase in mean fluorescence over baseline following ligand addition: ligand 10 μM. How it is done: as §2, §1

The subject of assay [4] is sham transfected (control). In words: Fluo-4 calcium assay, sham transfected control cells of Table 1. Here is the method:
as §2

Assay [5] concerns the target T3, human TAS2R16 (Homo sapiens, UniProt Q9NYV7).
T3 construct: expressed in transfected cells; host or cells: HEK293T cells stably expressing Gα16gustducin44, Gα16 or Gα16z44
T3 sequence (Q9NYV7 1-291): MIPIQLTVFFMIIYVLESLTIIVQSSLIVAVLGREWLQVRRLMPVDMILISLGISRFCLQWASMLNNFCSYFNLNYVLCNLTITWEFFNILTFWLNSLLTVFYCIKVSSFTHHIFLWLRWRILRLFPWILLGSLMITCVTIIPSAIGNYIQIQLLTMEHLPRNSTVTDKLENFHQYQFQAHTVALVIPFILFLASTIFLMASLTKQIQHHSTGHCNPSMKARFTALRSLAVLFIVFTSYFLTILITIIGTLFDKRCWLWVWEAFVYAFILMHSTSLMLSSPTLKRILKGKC
In words: Fluo-4 calcium assay, cells transiently transfected with human TAS2R16 and expressing a promiscuous G-protein. The note with it: ligand 5 mM; for increase in mean fluorescence over baseline following ligand addition: human TAS2R16. How it is done:
The protocol is described in “G-protein coupled receptors (Signal Transduction Series)”; Editors: Tatsuya Haga and Gabriel Berstein, 1st ed., 424 pp.CRC Press—Boca Raton, Fla.; September 1999, and may be summarised as follows: • 1. Day 0: 96-well plates are seeded with 20K cells per well and maintained at 37 degrees C. overnight in nutritive growth media. • 2. Day 1: Cells are transfected using 300 ng of GPCR DNA and 0.6 μl of Lipofectamine 2000 (Invitrogen) per well. Transfected cells are and maintained at 37 degrees C. overnight in nutritive growth media. • 3.
as §2

Setting [6] is: HEK293T cells, TAS2R16, Flexstation.

Residues, ends and D or L forms follow the SMILES beside them.

Turning to `CC1=CC(=O)[N-]S(=O)(=O)O1.[K+]` [acesulfame K], in assay [1], the “fluorescence signal with Gα16-gustducin 44, times stronger than wild-type Gα16” value turned out to be 2 times and the “fluorescence signal (in words)” value is “robust flurorescence signal”.
With `COC(=O)[C@H](Cc1ccccc1)NC(=O)[C@@H](N)CC(=O)O` [aspartame] (H-Asp-Phe-OMe), in assay [1], the “fluorescence signal with Gα16-gustducin 44, times stronger than wild-type Gα16” value came to 2 times and the “fluorescence signal (in words)” value is given as “robust flurorescence signal”.
On to `C[C@@H]1C[C@@H]([C@H](O)CC2CC(=O)NC(=O)C2)C(=O)[C@@H](C)C1` [cycloheximide], for which the “increase in mean fluorescence over baseline following ligand addition” value was 1705 RFUs in assay [2] (G-protein Gα16, ligand 10 μM); 3989 RFUs in assay [2] (G-protein Gα16gustducin44, ligand 10 μM); 2569 RFUs in assay [3] (mouse T2R5, G-protein Gα16); 10407 RFUs in assay [3] (mouse T2R5, G-protein Gα16gustducin44). The “fluorescence signal (in words)” value in assay [3] (HEK293T cells, mouse T2R5, Gα16-gustducin 44, ligand 10 uM) is recorded as “robust flurorescence signal”. Besides, the “fluorescence signal with Gα16-gustducin 44, times stronger than wild-type Gα16” value in assay [3] (HEK293T cells, mouse T2R5, ligand 10 uM) came to 5 times.
As to `OC[C@H]1O[C@@H](Oc2ccccc2)[C@H](O)[C@@H](O)[C@@H]1O` [phenyl-β-D-glucopyranoside], the “increase in mean fluorescence over baseline following ligand addition” value in assay [4] (G-protein Gα16, ligand 5 mM) is on record as 1024 RFUs; in assay [4] (G-protein Gα16gustducin44, ligand 5 mM) it was 2162 RFUs; in assay [4] (G-protein Gα16z44, ligand 5 mM), 1541 RFUs; in assay [5] (G-protein Gα16) it was 3494 RFUs; in assay [5] (G-protein Gα16gustducin44), 23821 RFUs; in assay [5] (G-protein Gα16z44), 8296 RFUs. Also, the “fluorescent signal with Gα16-gustducin 44, times stronger than reference chimeric G-protein Gα16-z44” value in assay [5] (setting [6]) was “about 3 times”. Further, the “fluorescent signal with Gα16-gustducin 44, times stronger than wild-type Gα16” value in assay [5] (setting [6]) is recorded as “about 7 times”. In assay [5] (TAS2R16), the “fluorescent signal (in words)” value is on record as “robust fluorescent signal”. Also, in assay [5] (hTAS2R16), the “receptor activation following ligand stimulation, Gα16gustducin44 cells compared with Gα16 cells (in words)” value was “greater degree of receptor activation”.
